Results from US4100285A, “N-substituted trialkoxybenzyl piperazine derivatives” (Nippon Shinyaku Co., Ltd., priority 1976, dated 1978).

Experiments:
removed guinea pig heart = test: Cardiovascular activity measured according to Langedorff's method by using the removed guinea pig heart; conditions: Concentration 10^-4 g/ml; for Heart Movements: Amplitude / Heart Movements: Tonus: arrow symbols
Protocol: (§1) For administration of the compounds of this invention into the human body, it is recommended to give them at the dose of 10 to 500 mg/day for internal administration and 1 to 50 mg/day for intravenous aministration. The compounds can be administered as such or in combination with a pharmaceutical carrier conventionally employed in cardiovascular and like preparations.

LD50 on mice = conditions: in vivo, ip; mouse
Protocol: as §1

SMILES | Coronary perfusion pressure (Δ%) (removed guinea pig heart) | Heart rate (Δ%) (removed guinea pig heart) | Heart Movements: Amplitude (removed guinea pig heart) | Heart Movements: Tonus (removed guinea pig heart) | LD50 (LD50 on mice)
COc1ccc(CN2CCN(CC=C(C)C)CC2)c(OC)c1OC [Example 1] | 5.7 Δ% | -18.2 Δ% | .dwnarw. | → | 
COc1ccc(CN2CCN(CC=Cc3ccccc3)CC2)c(OC)c1OC [Example 2] | -11.1 Δ% | -60.3 Δ% | .dwnarw. | → | 
COc1ccc(CN2CCN(c3nc(N)nc(N)n3)CC2)c(OC)c1OC [Example 3] | 4.4 Δ% | -21.9 Δ% | .dwnarw. | → | 
COc1ccc(CN2CCN(CCN3CCOCC3)CC2)c(OC)c1OC [Example 4] | -2.1 Δ% | -8.6 Δ% | .uparw. | → | 567 mg/kg
COc1ccc(CN2CCN(CCN3CCN(Cc4ccc(OC)c(OC)c4OC)CC3)CC2)c(OC)c1OC [Example 6] | -3.7 Δ% | -11.7 Δ% | .dwnarw. | → | 
COc1ccc(CN2CCN(CCCCN3CCN(Cc4ccc(OC)c(OC)c4OC)CC3)CC2)c(OC)c1OC [Example 7] | -18.8 Δ% | -37.5 Δ% | .dwnarw. | → | 239 mg/kg
COc1ccc(CN2CCN(CCCCCCN3CCN(Cc4ccc(OC)c(OC)c4OC)CC3)CC2)c(OC)c1OC [Example 8] | -19.2 Δ% | -19.1 Δ% | .dwnarw. | → | 84 mg/kg
COc1ccc(CN2CCN(CCCCCCCCN3CCN(Cc4ccc(OC)c(OC)c4OC)CC3)CC2)c(OC)c1OC [Example 9] | -10.0 Δ% | -28.6 Δ% | .dwnarw. | .dwnarw. | 
COc1ccc(CN2CCN(CCO)CC2)c(OC)c1OC [Example 10] | -4.4 Δ% | -10.7 Δ% | .dwnarw. | .dwnarw. | 567 mg/kg
COc1ccc(CN2CCN(CC(C)O)CC2)c(OC)c1OC (centres unmarked) [Example 11] | -11.1 Δ% | -49.4 Δ% | .dwnarw. | → | 336 mg/kg
COc1ccc(CN2CCN(CC(O)CO)CC2)c(OC)c1OC (centres unmarked) [Example 12] |  | -16.1 Δ% | .dwnarw. | → | 724 mg/kg
COc1ccc(CN2CCN(CC(O)c3ccccc3)CC2)c(OC)c1OC (centres unmarked) [Example 13] | -16.0 Δ% | -54.5 Δ% | .dwnarw. | → | 106 mg/kg
COc1ccc(CN2CCN(CC(O)COc3ccccc3)CC2)c(OC)c1OC (centres unmarked) [Example 14] | -20.0 Δ% | -48.7 Δ% | .dwnarw. | .dwnarw. | 142 mg/kg
